According to patent publication US4791118A, “Quinolonecarboxylic acid derivatives and their preparation” (Kyorin Pharmaceutical Co., Ltd., priority 1985, dated 1988):
≈ marks a conversion by molar mass, not a printed value.

Key:
[1] = test system: Streptococcus pyogenes (S-8); test: MIC, aerobic bacteria; format: cell-based; settings: Gram +, 10^6 cells/ml
S. pyogenes IID 692 = test: MIC, aerobic bacteria; format: cell-based; settings: Streptococcus pyogenes, IID692, Gram +, 10^6 cells/ml
E. coli ML 4707 = test: MIC, aerobic bacteria; format: cell-based; settings: Escherichia coli, ML4707, Gram -, 10^6 cells/ml
P. maltophilia GIFU 2491 = test: MIC, aerobic bacteria; format: cell-based; settings: Stenotrophomonas maltophilia, GIFU2491, Gram -, 10^6 cells/ml
B. distasonis 8503 = test: MIC, anaerobic bacteria; format: cell-based; settings: Parabacteroides distasonis, Gram -, 10^6 cells/ml
Source text: (§1) | Organism (10^6 cells/ml)

B. fragilis 0558 = test: MIC, anaerobic bacteria; format: cell-based; settings: Bacteroides fragilis, Gram -, 10^6 cells/ml
Source text: as §1

B. fragilis 25285 = test: MIC, anaerobic bacteria; format: cell-based; settings: Bacteroides fragilis, Gram -, 10^6 cells/ml
Source text: as §1

B. vulgatus KYA 29327 = test: MIC, anaerobic bacteria; format: cell-based; settings: Phocaeicola vulgatus, KYA29327, Gram -, 10^6 cells/ml
Source text: as §1

[2] = test system: Bacteroides fragilis GM 7000; test: MIC, anaerobic bacteria; format: cell-based; settings: GM7000, Gram -, 10^6 cells/ml
Source text: as §1

[3] = test system: Clostridium difficile I-E; test: MIC, anaerobic bacteria; format: cell-based; settings: Clostridioides difficile, Gram +, 10^6 cells/ml
Source text: as §1

F. nucleatum = test: MIC, anaerobic bacteria; format: cell-based; settings: Fusobacterium nucleatum, Gram -, 10^6 cells/ml
Source text: as §1

[4] = test system: Fusobacterium mortiferum 4249; test: MIC, anaerobic bacteria; format: cell-based; settings: Gram -, 10^6 cells/ml
Source text: as §1

[5] = test system: Peptococcus magnus KY 017; test: MIC, anaerobic bacteria; format: cell-based; settings: Finegoldia magna, KY017, Gram +, 10^6 cells/ml
Source text: as §1

Pst. micros UPI 5464-1 = test: MIC, anaerobic bacteria; format: cell-based; settings: Parvimonas micra, UPI54641, Gram +, 10^6 cells/ml
Source text: as §1

[6] = test system: Veillonella parvula KYA 10790; test: MIC, anaerobic bacteria; format: cell-based; settings: KYA10790, Gram -, 10^6 cells/ml
Source text: as §1

F. necrophorum S-45 = test: MIC, anaerobic bacteria; format: cell-based; settings: Fusobacterium necrophorum, S45, Gram -, 10^6 cells/ml
C. perfringens KYA 13123 = test: microbe, parasite or virus in culture; format: cell-based; settings: Clostridium perfringens, KYA13123
[7] = test system: Peptostreptococcus anaerobius KYA 27337; test: MIC, anaerobic bacteria; format: cell-based; settings: KYA27337, Gram +, 10^6 cells/ml
S. pyogenes 3102 = test: MIC, clinical isolates; format: cell-based; settings: Streptococcus pyogenes; clinical isolate S. pyogenes 3102; 10^6 cells/ml
S. pyogenes 3107 = test: MIC, clinical isolates; format: cell-based; settings: Streptococcus pyogenes; clinical isolate S. pyogenes 3107; 10^6 cells/ml
S. pyogenes 3131 = test: MIC, clinical isolates; format: cell-based; settings: Streptococcus pyogenes; clinical isolate S. pyogenes 3131; 10^6 cells/ml
S. pneumoniae 3727 = test: MIC, clinical isolates; format: cell-based; settings: Streptococcus pneumoniae; clinical isolate S. pneumoniae 3727; 10^6 cells/ml
S. pneumoniae 2054 = test: MIC, clinical isolates; format: cell-based; settings: Streptococcus pneumoniae; clinical isolate S. pneumoniae 2054; 10^6 cells/ml
S. pneumoniae 2950 = test: MIC, clinical isolates; format: cell-based; settings: Streptococcus pneumoniae; clinical isolate S. pneumoniae 2950; 10^6 cells/ml
S. agalactiae 4342 = test: MIC, clinical isolates; format: cell-based; settings: Streptococcus agalactiae; clinical isolate S. agalactiae 4342; 10^6 cells/ml
E. faecalis 49 = test: MIC, clinical isolates; format: cell-based; settings: Enterococcus faecalis; clinical isolate E. faecalis 49; 10^6 cells/ml
E. faecalis 214 = test: MIC, clinical isolates; format: cell-based; settings: Enterococcus faecalis; clinical isolate E. faecalis 214; 10^6 cells/ml
[8] = test system: Enterobacter cloacae IID 977; test: MIC, aerobic bacteria; settings: IID977
[9] = test system: Eubacterium limosum KYA 8486; test: MIC, anaerobic bacteria; settings: KYA8486
C. ramosum = test: MIC, anaerobic bacteria; settings: Thomasclavelia ramosa
[10] = test system: Bacillus subtilis PCI 219; test: microbe, parasite or virus in culture; settings: PCI219
[11] = test system: Staphylococcus aureus 209 P; test: microbe, parasite or virus in culture
S. aureus Smith = test: microbe, parasite or virus in culture; settings: Staphylococcus aureus
P. cepacia GIFU 518 = test: microbe, parasite or virus in culture; settings: Burkholderia cepacia, GIFU518
F. varium KYA 8501 = test: microbe, parasite or virus in culture; settings: Fusobacterium varium, KYA8501
E. lentum GAI 5242 = test: microbe, parasite or virus in culture; settings: Eggerthella lenta, GAI5242
S. agalactiae 4394 = test: microbe, parasite or virus in culture; settings: Streptococcus agalactiae
E. faecalis 402 = test: microbe, parasite or virus in culture; settings: Enterococcus faecalis

| Compound | MIC [1] [µg/mL] | MIC (S. pyogenes IID 692) [µg/mL] | MIC (E. coli ML 4707) [µg/mL] | MIC (P. maltophilia GIFU 2491) [µg/mL] | MIC (B. distasonis 8503) [µg/mL] | MIC (B. fragilis 0558) [µg/mL] | MIC (B. fragilis 25285) [µg/mL] | MIC (B. vulgatus KYA 29327) [µg/mL] | MIC [2] [µg/mL] | MIC [3] [µg/mL] | MIC (F. nucleatum) [µg/mL] | MIC [4] [µg/mL] | MIC [5] [µg/mL] | MIC (Pst. micros UPI 5464-1) [µg/mL] | MIC [6] [µg/mL] | MIC (F. necrophorum S-45) [µg/mL] | MIC (C. perfringens KYA 13123) [µg/mL] | MIC [7] [µg/mL] | MIC (S. pyogenes 3102) [µg/mL] | MIC (S. pyogenes 3107) [µg/mL] | also measured |
| --- | --- | --- | --- | --- | --- | --- | --- | --- | --- | --- | --- | --- | --- | --- | --- | --- | --- | --- | --- | --- | --- |
| O=C(O)c1cn(C2CC2)c2c(Cl)c(N3CCC(CNCCF)C3)c(F)cc2c1=O (stereo not shown) [Exp. 1, 8-Chloro-1-cyclopropyl-6-fluoro-7-[3-(2-fluoroethyl)aminomethyl-1-pyrrolidinyl]-1,4-dihydro-4-oxo-3-quinolinecarboxylic acid] | 0.025 (≈ 0.0587 µM) | 0.05 (≈ 0.117 µM) | 0.0125 (≈ 0.0294 µM) | 0.2 (≈ 0.47 µM) | 0.2 (≈ 0.47 µM) | ≤ 0.05 | ≤ 0.05 | ≤ 0.05 | ≤ 0.05 | 0.2 (≈ 0.47 µM) | ≤ 0.05 | ≤ 0.05 | ≤ 0.05 | 0.1 (≈ 0.235 µM) | 0.1 (≈ 0.235 µM) | 0.1 (≈ 0.235 µM) | ≤ 0.05 | ≤ 0.05 | 0.025 (≈ 0.0587 µM) | 0.025 (≈ 0.0587 µM) | MIC (S. pyogenes 3131): 0.025 µg/mL (≈ 0.0587 µM); MIC (S. pneumoniae 3727): 0.025 µg/mL (≈ 0.0587 µM); MIC (S. pneumoniae 2054): 0.025 µg/mL (≈ 0.0587 µM); MIC (S. pneumoniae 2950): 0.025 µg/mL (≈ 0.0587 µM); MIC (S. agalactiae 4342): 0.05 µg/mL (≈ 0.117 µM); MIC (E. faecalis 49): 0.05 µg/mL (≈ 0.117 µM); MIC (E. faecalis 214): 0.05 µg/mL (≈ 0.117 µM); MIC [8]: 0.1 µg/mL (≈ 0.235 µM); MIC [9]: 0.39 µg/mL (≈ 0.916 µM); MIC (C. ramosum): 0.1 µg/mL (≈ 0.235 µM); MIC [10]: ≤ 0.0063 µg/mL; MIC [11]: ≤ 0.0063 µg/mL; MIC (S. aureus Smith): ≤ 0.0063 µg/mL; MIC (P. cepacia GIFU 518): 0.78 µg/mL (≈ 1.83 µM); MIC (F. varium KYA 8501): 0.39 µg/mL (≈ 0.916 µM); MIC (E. lentum GAI 5242): 0.1 µg/mL (≈ 0.235 µM); MIC (S. agalactiae 4394): 0.1 µg/mL (≈ 0.235 µM); MIC (E. faecalis 402): 0.1 µg/mL (≈ 0.235 µM) |
| O=C(O)c1cn(C2CC2)c2c(F)c(N3CCC(CNCCF)C3)c(F)cc2c1=O (stereo not shown) [Exp. 2, 1-Cyclopropyl-7-[3-(2-fluoroethyl)aminomethyl-1-pyrrolidinyl]-6,8-difluoro-1,4-dihydro-4-oxo-3-quinolinecarboxylic acid] | 0.05 (≈ 0.122 µM) | 0.1 (≈ 0.244 µM) | 0.025 (≈ 0.0611 µM) | 0.2 (≈ 0.489 µM) | 0.78 (≈ 1.91 µM) | 0.39 (≈ 0.953 µM) | 0.39 (≈ 0.953 µM) | 0.39 (≈ 0.953 µM) | 0.39 (≈ 0.953 µM) | 0.78 (≈ 1.91 µM) | 0.2 (≈ 0.489 µM) | 0.2 (≈ 0.489 µM) | ≤ 0.05 | 0.2 (≈ 0.489 µM) | 0.2 (≈ 0.489 µM) | 0.2 (≈ 0.489 µM) | 0.1 (≈ 0.244 µM) | ≤ 0.05 | 0.05 (≈ 0.122 µM) | 0.05 (≈ 0.122 µM) | MIC (S. pyogenes 3131): 0.05 µg/mL (≈ 0.122 µM); MIC (S. pneumoniae 3727): 0.05 µg/mL (≈ 0.122 µM); MIC (S. pneumoniae 2054): 0.05 µg/mL (≈ 0.122 µM); MIC (S. pneumoniae 2950): 0.05 µg/mL (≈ 0.122 µM); MIC (S. agalactiae 4342): 0.05 µg/mL (≈ 0.122 µM); MIC (E. faecalis 49): 0.05 µg/mL (≈ 0.122 µM); MIC (E. faecalis 214): 0.05 µg/mL (≈ 0.122 µM); MIC [8]: 0.1 µg/mL (≈ 0.244 µM); MIC [9]: 0.78 µg/mL (≈ 1.91 µM); MIC (C. ramosum): 0.39 µg/mL (≈ 0.953 µM); MIC [10]: 0.0125 µg/mL (≈ 0.0305 µM); MIC [11]: 0.0125 µg/mL (≈ 0.0305 µM); MIC (S. aureus Smith): 0.0125 µg/mL (≈ 0.0305 µM); MIC (P. cepacia GIFU 518): 0.78 µg/mL (≈ 1.91 µM); MIC (F. varium KYA 8501): 0.78 µg/mL (≈ 1.91 µM); MIC (E. lentum GAI 5242): 0.39 µg/mL (≈ 0.953 µM); MIC (S. agalactiae 4394): 0.1 µg/mL (≈ 0.244 µM); MIC (E. faecalis 402): 0.1 µg/mL (≈ 0.244 µM) |
